# Data taken from article PMC10584170, “Machine learning-based phenotypic imaging to characterise the targetable biology of Plasmodium falciparum male gametocytes for the development of transmission-blocking antimalarials” (PLOS Pathogens, 2023).
# Where two headings read alike, the source gives them in different places.
# Legend:
# [1] = system: P. falciparum male gametocytes; assay: P. falciparum Dual Gamete Formation Assay (PfDGFA), male readout (exflagellation); type: cell-based, Plasmodium falciparum NF54; settings: for Selectivity Ratio M: HepG2 Tox50 versus male IC50; for Average inhibition male (%) / % inhibition male (individual replicates) R1 / % inhibition male (individual replicates) R3 / % inhibition male (individual replicates) R4 / inhibition at 2 µM: 24h preincubation with gametocytes; for IC50: PfDGFA, 24 h incubation with gametocytes before induction, exflagellation readout, read-out: Male IC50; for HitlevelM: number of replicates with >50% inhibition in the male readout
# Outline: (§1)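 Two sex-specific readouts come from one well: male exflagellation centres recorded by brightfield video right after activation, and female gametes scored by Cy3-anti-Pfs25 fluorescence after 24 h at 28°C.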
# [2] = system: P. falciparum female gametocytes; assay: P. falciparum Dual Gamete Formation Assay (PfDGFA), female readout (Pfs25-positive female gametes); type: cell-based, Plasmodium falciparum NF54; settings: for Selectivity ratio F: HepG2 Tox50 versus female IC50; for Average inhibition female (%) / % inhibition female (individual replicates) R1 / % inhibition female (individual replicates) R3 / % inhibition female (individual replicates) R4 / inhibition at 2 µM: 24h preincubation with gametocytes; for IC50: PfDGFA, 24 h incubation with gametocytes before induction, female gamete readout, read-out: Female IC50; for HitlevelF: number of replicates with >50% inhibition in the female readout
# Outline: as §1
# HepG2 cells = assay: HepG2 cytotoxicity counter-screen; settings: cytotoxic activity against HepG2 cells
# [3] = PfDGFA at 2µM, average of replicates
# [4] = Plasmodium falciparum, 2µM, average of replicates, read-out: Average inhibition male (%)
# [5] = Plasmodium falciparum, 2µM, replicate R1, read-out: % inhibition male (individual replicates) R1
# [6] = Plasmodium falciparum, 2µM, replicate R2, read-out: % inhibition male (individual replicates) R2
# [7] = Plasmodium falciparum, 2µM, replicate R3, read-out: % inhibition male (individual replicates) R3
# [8] = Plasmodium falciparum, 2µM, replicate R4, read-out: % inhibition male (individual replicates) R4
# [9] = Plasmodium falciparum, 2µM, average of replicates, read-out: Average inhibition female (%)
# [10] = Plasmodium falciparum, 2µM, replicate R1, read-out: % inhibition female (individual replicates) R1
# [11] = Plasmodium falciparum, 2µM, replicate R2, read-out: % inhibition female (individual replicates) R2
# [12] = Plasmodium falciparum, 2µM, replicate R3, read-out: % inhibition female (individual replicates) R3
# [13] = Plasmodium falciparum, 2µM, replicate R4, read-out: % inhibition female (individual replicates) R4
Compound,Selectivity Ratio M [1],"Average inhibition male (%) [1, 3] [%]","% inhibition male (individual replicates) R1 ([1]; PfDGFA at 2µM, replicate R1) [%]","% inhibition male (individual replicates) R3 ([1]; PfDGFA at 2µM, replicate R3) [%]","% inhibition male (individual replicates) R4 ([1]; PfDGFA at 2µM, replicate R4) [%]",IC50 [1] [nM],HitlevelM ([1]; 2µM),Selectivity ratio F [2],"Average inhibition female (%) [2, 3] [%]","% inhibition female (individual replicates) R1 ([2]; PfDGFA at 2µM, replicate R1) [%]","% inhibition female (individual replicates) R3 ([2]; PfDGFA at 2µM, replicate R3) [%]","% inhibition female (individual replicates) R4 ([2]; PfDGFA at 2µM, replicate R4) [%]",IC50 [2] [nM],HitlevelF ([2]; 2µM),Tox50 (HepG2 cells) [µM],IC50 ([1]; Plasmodium falciparum) [nM],IC50 ([2]; Plasmodium falciparum) [nM],"inhibition at 2 µM [1, 4] [%]","inhibition at 2 µM [1, 5] [%]","inhibition at 2 µM [1, 6] [%]",other results
FC(F)(F)c1ccc2[nH]c(-c3cccc(-c4ccc(CNCCN5CCNCC5)cc4)c3)nc2c1.O=C(O)C(F)(F)F [TCMDC-132872],9.17,72.1,71.0,37.9,97.6,1580,3,2.18,30.3,24.6,21.1,42.9,6650,0,14.49,,,,,,
COc1ccc(-c2cnc(N)c(-c3ccc(C(N)=O)cc3)c2)cc1OC [TCMDC-133349],54.05,,,,,,3,1.51,,,,,,0,15.14,280,> 10000,,,,"inhibition at 2 µM ([1]; Plasmodium falciparum, PfDGFA at 2µM, average of replicates, read-out: Average inhibition male (%)): 71.3%; inhibition at 2 µM ([1]; Plasmodium falciparum, PfDGFA at 2µM, replicate R1, read-out: % inhibition male (individual replicates) R1): 80.4%; inhibition at 2 µM ([1]; Plasmodium falciparum, PfDGFA at 2µM, replicate R2, read-out: % inhibition male (individual replicates) R2): 82.4%; inhibition at 2 µM ([1]; Plasmodium falciparum, PfDGFA at 2µM, replicate R4, read-out: % inhibition male (individual replicates) R4): 51.1%; inhibition at 2 µM ([2]; Plasmodium falciparum, PfDGFA at 2µM, average of replicates, read-out: Average inhibition female (%)): 9.1%; inhibition at 2 µM ([2]; Plasmodium falciparum, PfDGFA at 2µM, replicate R1, read-out: % inhibition female (individual replicates) R1): 0.18%; inhibition at 2 µM ([2]; Plasmodium falciparum, PfDGFA at 2µM, replicate R2, read-out: % inhibition female (individual replicates) R2): 11.3%; inhibition at 2 µM ([2]; Plasmodium falciparum, PfDGFA at 2µM, replicate R3, read-out: % inhibition female (individual replicates) R3): 7.9%; inhibition at 2 µM ([2]; Plasmodium falciparum, PfDGFA at 2µM, replicate R4, read-out: % inhibition female (individual replicates) R4): 17.1%"
CNC(=O)c1ccccc1Nc1nc(Nc2ccc(CCN3CCN(C)CC3)cc2)ncc1Cl.Cl [TCMDC-133800],5.19,,,,,60,,0.03,,,,,,,0.33,,,,,,"Average inhibition male (%) ([1]; 2µM, average of replicates): 96.7%; % inhibition male (individual replicates) R1 ([1]; 2µM, replicate R1): 94.6%; % inhibition male (individual replicates) R3 ([1]; 2µM, replicate R3): 98.6%; % inhibition male (individual replicates) R4 ([1]; 2µM, replicate R4): 96.9%; Average inhibition female (%) ([2]; 2µM, average of replicates): 7.2%; % inhibition female (individual replicates) R1 ([2]; 2µM, replicate R1): 6.8%; % inhibition female (individual replicates) R3 ([2]; 2µM, replicate R3): -10.4%; % inhibition female (individual replicates) R4 ([2]; 2µM, replicate R4): 12.4%"
CNC(=O)c1ccccc1Nc1nc(Nc2cccc(CS(C)(=O)=O)c2)ncc1C.O=CO [TCMDC-133809],6.79,,,,,150,,0.1,,,,,,,1.03,,,,,,"Average inhibition male (%) ([1]; 2µM, average of replicates): 90.9%; % inhibition male (individual replicates) R1 ([1]; 2µM, replicate R1): 93.6%; % inhibition male (individual replicates) R3 ([1]; 2µM, replicate R3): 92.1%; % inhibition male (individual replicates) R4 ([1]; 2µM, replicate R4): 84.9%; Average inhibition female (%) ([2]; 2µM, average of replicates): -2.2%; % inhibition female (individual replicates) R1 ([2]; 2µM, replicate R1): -7.2%; % inhibition female (individual replicates) R3 ([2]; 2µM, replicate R3): 6.2%; % inhibition female (individual replicates) R4 ([2]; 2µM, replicate R4): -11.5%"
CN1CCC(N2CCN(Cc3cccc(-c4ccc(-c5nc6cc(C(F)(F)F)ccc6[nH]5)cc4)c3)CC2)CC1.O=C(O)C(F)(F)F [TCMDC-133842],3.46,86.6,86.4,71.8,92.9,1540,4,1.63,30.2,16.8,18.6,31.1,3270,1,5.34,,,,,,
Fc1ccc2[nH]c(-c3ccc(-c4ccc(CN5CCC(CCN6CCCCC6)CC5)cc4)s3)nc2c1.O=C(O)C(F)(F)F [TCMDC-133932],3.55,85.6,90.7,68.9,86.9,1360,4,1.07,38.7,37.3,32.0,25.9,4500,1,4.83,,,,,,
Cl.NC(=O)c1ccccc1Nc1nc(Nc2cccc(N3CCN(CCO)CC3)c2)ncc1Cl [TCMDC-134114],28.08,,,,,,,1.31,,,,,,,13.07,470,> 10000,96.1,97.9,97.4,"inhibition at 2 µM [1, 7]: 96.2%; inhibition at 2 µM [1, 8]: 92.9%; inhibition at 2 µM [2, 9]: 4.2%; inhibition at 2 µM [2, 10]: 11.2%; inhibition at 2 µM [2, 11]: 7.4%; inhibition at 2 µM [2, 12]: -5%; inhibition at 2 µM [2, 13]: 3.4%"
Cc1cc(Nc2ncc(C#N)c(Nc3ccccc3C(N)=O)n2)ccc1N1CCN(C)CC1.Cl [TCMDC-134115],28.49,,,,,,,0.14,,,,,,,1.03,40,7400,96.2,97.3,97.1,"inhibition at 2 µM [1, 7]: 88.6%; inhibition at 2 µM [1, 8]: 102%; inhibition at 2 µM [2, 9]: -14.3%; inhibition at 2 µM [2, 10]: -7.3%; inhibition at 2 µM [2, 11]: -13.1%; inhibition at 2 µM [2, 12]: -26.9%; inhibition at 2 µM [2, 13]: -10%"
CN1CCN(c2ccc(Nc3ncc(C#N)c(Nc4ccccc4C(N)=O)n3)cc2)CC1.Cl [TCMDC-134116],137.11,,,,,,,0.4,,,,,,,3.71,30,9170,100,98.7,101,"inhibition at 2 µM [1, 7]: 97.3%; inhibition at 2 µM [1, 8]: 104%; inhibition at 2 µM [2, 9]: -1.7%; inhibition at 2 µM [2, 10]: 7.5%; inhibition at 2 µM [2, 11]: 3%; inhibition at 2 µM [2, 12]: -11.3%; inhibition at 2 µM [2, 13]: -6.1%"
